In publication PMC3959874 (European journal of dermatology : EJD, 2013):

Legend:
Purinergic P2x = experiment: Radioligand binding assay; set-up: species or system rabbit; settings: 10 μM; 25 °C, 30 min
Adenosine A3 = Adenosine A3 (Homo sapiens, UniProt P0DMS8); experiment: Radioligand binding assay; settings: 10 μM; 25 °C, 60 min
Imidazoline I2, Central = experiment: Radioligand binding assay; set-up: species or system rat; settings: 10 μM; 25 °C, 30 min
Prostanoid EP4 = Prostanoid EP4 (Homo sapiens, UniProt P35408); experiment: Radioligand binding assay; settings: 10 μM; 25 °C, 120 min
Chain of Prostanoid EP4 (P35408 whole entry): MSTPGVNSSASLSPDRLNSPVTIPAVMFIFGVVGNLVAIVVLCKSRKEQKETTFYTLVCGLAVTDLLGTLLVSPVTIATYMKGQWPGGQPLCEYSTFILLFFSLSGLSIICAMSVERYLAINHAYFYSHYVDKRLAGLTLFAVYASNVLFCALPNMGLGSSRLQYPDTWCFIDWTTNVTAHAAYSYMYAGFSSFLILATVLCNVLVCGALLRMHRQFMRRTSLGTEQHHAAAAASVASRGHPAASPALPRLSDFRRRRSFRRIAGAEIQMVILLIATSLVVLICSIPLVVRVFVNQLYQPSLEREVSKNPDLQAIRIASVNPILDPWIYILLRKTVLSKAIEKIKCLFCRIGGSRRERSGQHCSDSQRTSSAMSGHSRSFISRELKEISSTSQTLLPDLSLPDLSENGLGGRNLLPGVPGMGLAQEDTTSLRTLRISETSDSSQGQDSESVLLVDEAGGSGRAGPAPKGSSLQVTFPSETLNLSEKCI

CYP450, 2C9 = CYP450, 2C9 (Homo sapiens, UniProt P11712); experiment: Cytochrome P450 enzyme assay; format: in vitro ADME; settings: 10 μM; 37 °C, 45 min
Chain of CYP450, 2C9 (P11712 whole entry): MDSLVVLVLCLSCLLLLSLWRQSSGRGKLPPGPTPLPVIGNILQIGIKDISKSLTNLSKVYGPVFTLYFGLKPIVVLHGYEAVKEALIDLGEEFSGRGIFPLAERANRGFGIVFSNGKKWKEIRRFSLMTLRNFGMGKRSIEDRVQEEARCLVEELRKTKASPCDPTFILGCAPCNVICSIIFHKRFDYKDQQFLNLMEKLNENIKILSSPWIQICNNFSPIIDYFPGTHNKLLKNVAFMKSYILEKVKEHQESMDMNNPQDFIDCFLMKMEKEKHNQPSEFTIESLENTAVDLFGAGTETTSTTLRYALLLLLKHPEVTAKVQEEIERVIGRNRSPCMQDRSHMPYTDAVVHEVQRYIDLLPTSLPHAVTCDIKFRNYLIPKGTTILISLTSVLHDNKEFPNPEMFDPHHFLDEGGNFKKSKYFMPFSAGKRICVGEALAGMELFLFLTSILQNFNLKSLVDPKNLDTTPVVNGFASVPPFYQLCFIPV

Muscarinic M1 = Muscarinic M1 (Homo sapiens, UniProt P11229); format: binding; settings: 10 μM; 25 °C, 120 min
Chain of Muscarinic M1 (P11229 whole entry): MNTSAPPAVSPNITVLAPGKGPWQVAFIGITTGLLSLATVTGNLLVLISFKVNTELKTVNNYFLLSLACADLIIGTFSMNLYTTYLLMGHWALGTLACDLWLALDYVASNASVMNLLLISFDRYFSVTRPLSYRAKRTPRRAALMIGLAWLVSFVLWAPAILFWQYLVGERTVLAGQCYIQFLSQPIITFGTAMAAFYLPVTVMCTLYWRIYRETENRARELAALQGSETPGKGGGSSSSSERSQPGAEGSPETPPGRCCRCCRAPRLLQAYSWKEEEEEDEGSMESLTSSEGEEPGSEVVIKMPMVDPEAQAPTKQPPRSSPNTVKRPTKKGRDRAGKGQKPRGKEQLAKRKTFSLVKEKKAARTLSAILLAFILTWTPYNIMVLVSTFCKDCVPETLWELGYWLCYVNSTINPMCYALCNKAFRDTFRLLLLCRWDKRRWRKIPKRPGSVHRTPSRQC

Estrogen ERa = Estrogen ERa (Homo sapiens, UniProt P03372); experiment: Radioligand binding assay; settings: 10 μM; 25 °C, 120 min
CYP450, 2C19 = CYP450, 2C19 (Homo sapiens, UniProt P33261); experiment: Cytochrome P450 enzyme assay; format: in vitro ADME; settings: 10 μM; 37 °C, 45 min
Chain of CYP450, 2C19 (P33261 whole entry): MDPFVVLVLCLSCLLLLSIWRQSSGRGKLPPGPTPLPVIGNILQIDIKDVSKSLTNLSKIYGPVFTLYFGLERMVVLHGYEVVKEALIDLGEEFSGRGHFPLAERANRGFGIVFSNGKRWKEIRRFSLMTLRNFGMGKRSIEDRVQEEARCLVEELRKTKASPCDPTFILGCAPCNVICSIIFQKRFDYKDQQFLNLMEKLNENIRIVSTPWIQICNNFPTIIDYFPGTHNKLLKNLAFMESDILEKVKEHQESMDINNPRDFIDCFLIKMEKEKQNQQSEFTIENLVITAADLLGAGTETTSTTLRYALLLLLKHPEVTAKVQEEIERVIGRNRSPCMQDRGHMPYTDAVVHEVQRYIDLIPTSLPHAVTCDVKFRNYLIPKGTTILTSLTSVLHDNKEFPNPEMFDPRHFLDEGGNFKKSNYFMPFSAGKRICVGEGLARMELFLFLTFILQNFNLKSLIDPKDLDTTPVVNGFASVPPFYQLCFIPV

Rolipram = experiment: Radioligand binding assay; set-up: species or system rat; settings: 10 μM; 4 °C, 60 min
[1] = Serum drug concentration after topical skin application; settings: mice, TMX-202 from TMX-202 gel, IMQ from Aldara
[2] = test system: Calcium Channel L-Type, Benzothiazepine; experiment: Radioligand binding assay; set-up: species or system rat; settings: 10 μM; 4 °C, 180 min
[3] = test system: primary bone marrow derived dendritic cells (BMDC); experiment: Cytokine induction; format: cell-based, mouse; settings: graded doses overnight, ELISA (figures 1B, C)
Dopamine D24 = Dopamine D24 (Homo sapiens, UniProt P14416); experiment: Radioligand binding assay; settings: 10 μM; 37 °C, 120 min
Adenosine A1 = Adenosine A1 (Homo sapiens, UniProt P30542); experiment: Radioligand binding assay; settings: 10 μM; 25 °C, 90 min
Chain of Adenosine A1 (P30542 whole entry): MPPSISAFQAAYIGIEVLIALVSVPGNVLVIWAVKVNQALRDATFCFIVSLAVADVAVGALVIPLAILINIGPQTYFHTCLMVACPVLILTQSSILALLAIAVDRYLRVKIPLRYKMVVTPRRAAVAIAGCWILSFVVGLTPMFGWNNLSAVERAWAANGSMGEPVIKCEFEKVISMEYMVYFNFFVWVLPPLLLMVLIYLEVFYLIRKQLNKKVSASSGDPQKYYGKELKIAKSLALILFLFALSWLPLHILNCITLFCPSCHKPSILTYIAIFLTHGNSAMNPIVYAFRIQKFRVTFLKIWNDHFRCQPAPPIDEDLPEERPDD

Endothelin ETA = Endothelin ETA (Homo sapiens, UniProt P25101); experiment: Radioligand binding assay; settings: 10 μM; 37 °C, 120 min
Calcium Channel N-Type = Calcium Channel N-Type (Rattus norvegicus, UniProt Q02294); experiment: Radioligand binding assay; settings: 10 μM; 4 °C, 30 min
human whole blood = experiment: Cytokine induction in human whole blood assay; format: cell-based; settings: three donors (figures 1D–F)
Phorbol Ester = experiment: Radioligand binding assay; set-up: species or system mouse; settings: 10 μM; 25 °C, 60 min
[4] = target: Transporter, Norepinephrine (NET) (Homo sapiens, UniProt P23975); experiment: Radioligand binding assay; settings: 10 μM; 4 °C, 180 min
Endothelin ETB = Endothelin ETB (Homo sapiens, UniProt P24530); experiment: Radioligand binding assay; settings: 10 μM; 25 °C, 120 min
Glutamate, NMDA, Agonism = experiment: Radioligand binding assay; set-up: species or system rat; settings: 10 μM; 4 °C, 20 min
Cannabinoid CB1 = Cannabinoid CB1 (Homo sapiens, UniProt P21554); experiment: Radioligand binding assay; settings: 10 μM; 37 °C, 90 min
[5] = target: Transporter, Serotonin (5-Hyd roxytryptamine) (SERT) (Homo sapiens, UniProt P31645); format: binding; settings: 10 μM; 25 °C, 60 min
Chain of Transporter, Serotonin (5-Hyd roxytryptamine) (SERT) (P31645 whole entry): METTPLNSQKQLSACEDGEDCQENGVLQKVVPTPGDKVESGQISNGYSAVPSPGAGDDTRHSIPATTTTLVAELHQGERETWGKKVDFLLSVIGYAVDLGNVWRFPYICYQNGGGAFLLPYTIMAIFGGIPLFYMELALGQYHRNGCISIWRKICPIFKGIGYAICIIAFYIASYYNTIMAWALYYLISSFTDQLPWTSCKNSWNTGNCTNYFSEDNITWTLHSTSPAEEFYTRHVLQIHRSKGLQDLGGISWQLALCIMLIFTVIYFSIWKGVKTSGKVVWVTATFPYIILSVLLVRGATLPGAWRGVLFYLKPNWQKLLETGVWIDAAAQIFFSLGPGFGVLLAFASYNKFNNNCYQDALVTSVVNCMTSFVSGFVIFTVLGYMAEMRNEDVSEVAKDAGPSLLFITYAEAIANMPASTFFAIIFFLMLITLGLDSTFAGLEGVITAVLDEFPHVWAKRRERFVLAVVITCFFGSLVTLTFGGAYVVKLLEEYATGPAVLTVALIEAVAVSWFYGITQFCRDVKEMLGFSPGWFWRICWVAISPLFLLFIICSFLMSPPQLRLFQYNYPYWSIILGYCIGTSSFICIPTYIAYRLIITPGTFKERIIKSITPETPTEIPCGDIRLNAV

GABAA, Muscimol, Central = experiment: Radioligand binding assay; set-up: species or system rat; settings: 10 μM; 4 °C, 10 min
Interleukin IL-1 = Interleukin IL-1 (Mus musculus, UniProt P13504); experiment: Radioligand binding assay; settings: 10 μM; 37 °C, 120 min
Chain of Interleukin IL-1 (P13504 20-576): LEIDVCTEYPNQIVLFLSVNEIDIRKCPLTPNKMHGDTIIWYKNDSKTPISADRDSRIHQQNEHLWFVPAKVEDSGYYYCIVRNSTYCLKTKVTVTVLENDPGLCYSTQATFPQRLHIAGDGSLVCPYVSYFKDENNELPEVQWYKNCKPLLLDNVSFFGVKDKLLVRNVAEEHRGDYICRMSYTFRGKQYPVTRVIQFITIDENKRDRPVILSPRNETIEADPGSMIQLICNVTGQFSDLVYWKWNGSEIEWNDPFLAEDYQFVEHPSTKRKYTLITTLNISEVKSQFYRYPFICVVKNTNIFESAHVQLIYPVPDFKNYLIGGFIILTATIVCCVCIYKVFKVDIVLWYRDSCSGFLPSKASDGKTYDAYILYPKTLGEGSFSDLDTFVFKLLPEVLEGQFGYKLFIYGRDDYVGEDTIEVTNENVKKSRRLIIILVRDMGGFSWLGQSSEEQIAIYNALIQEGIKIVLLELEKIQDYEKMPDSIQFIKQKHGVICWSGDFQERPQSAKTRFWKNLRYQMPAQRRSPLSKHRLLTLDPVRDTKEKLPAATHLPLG

CYP450, 2D6 = CYP450, 2D6 (Homo sapiens, UniProt P10635); experiment: Cytochrome P450 enzyme assay; format: in vitro ADME; settings: 10 μM; 37 °C, 45 min
Chain of CYP450, 2D6 (P10635 whole entry): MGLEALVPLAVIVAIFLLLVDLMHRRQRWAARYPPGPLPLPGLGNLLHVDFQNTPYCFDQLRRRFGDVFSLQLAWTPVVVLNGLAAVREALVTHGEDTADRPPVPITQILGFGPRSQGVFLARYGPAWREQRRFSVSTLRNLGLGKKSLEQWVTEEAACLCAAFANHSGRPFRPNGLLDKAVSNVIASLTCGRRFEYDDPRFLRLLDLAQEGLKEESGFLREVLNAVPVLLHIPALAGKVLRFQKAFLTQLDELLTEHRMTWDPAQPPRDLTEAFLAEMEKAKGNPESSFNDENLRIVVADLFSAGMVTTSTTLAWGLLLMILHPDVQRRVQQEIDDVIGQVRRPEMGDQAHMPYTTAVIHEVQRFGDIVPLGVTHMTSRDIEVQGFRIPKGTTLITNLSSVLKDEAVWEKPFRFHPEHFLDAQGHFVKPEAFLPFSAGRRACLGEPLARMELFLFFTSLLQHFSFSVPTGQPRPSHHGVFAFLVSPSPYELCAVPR

human PBMC = experiment: IFN-γ secretion by stimulated PBMC; format: cell-based
CYP450, 1A2 = CYP450, 1A2 (Homo sapiens, UniProt P05177); experiment: Cytochrome P450 enzyme assay; format: in vitro ADME; settings: 10 μM; 37 °C, 30 min
Chain of CYP450, 1A2 (P05177 whole entry): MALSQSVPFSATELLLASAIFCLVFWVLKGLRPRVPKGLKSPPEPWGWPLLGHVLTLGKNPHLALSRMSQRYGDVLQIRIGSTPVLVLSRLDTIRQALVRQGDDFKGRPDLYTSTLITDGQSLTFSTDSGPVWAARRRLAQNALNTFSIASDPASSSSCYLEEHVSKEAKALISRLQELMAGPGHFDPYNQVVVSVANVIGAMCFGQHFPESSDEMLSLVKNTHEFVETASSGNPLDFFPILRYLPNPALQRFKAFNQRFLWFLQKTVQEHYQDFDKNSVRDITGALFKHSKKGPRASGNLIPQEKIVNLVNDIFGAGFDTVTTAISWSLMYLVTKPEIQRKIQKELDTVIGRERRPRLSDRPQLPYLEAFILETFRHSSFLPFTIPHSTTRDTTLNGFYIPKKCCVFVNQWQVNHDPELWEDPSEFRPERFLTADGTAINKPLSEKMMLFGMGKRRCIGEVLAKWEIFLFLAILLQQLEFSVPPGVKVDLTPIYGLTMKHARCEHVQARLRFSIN

Dopamine D3 = Dopamine D3 (Homo sapiens, UniProt P35462); experiment: Radioligand binding assay; settings: 10 μM; 37 °C, 120 min
Chain of Dopamine D3 (P35462 whole entry): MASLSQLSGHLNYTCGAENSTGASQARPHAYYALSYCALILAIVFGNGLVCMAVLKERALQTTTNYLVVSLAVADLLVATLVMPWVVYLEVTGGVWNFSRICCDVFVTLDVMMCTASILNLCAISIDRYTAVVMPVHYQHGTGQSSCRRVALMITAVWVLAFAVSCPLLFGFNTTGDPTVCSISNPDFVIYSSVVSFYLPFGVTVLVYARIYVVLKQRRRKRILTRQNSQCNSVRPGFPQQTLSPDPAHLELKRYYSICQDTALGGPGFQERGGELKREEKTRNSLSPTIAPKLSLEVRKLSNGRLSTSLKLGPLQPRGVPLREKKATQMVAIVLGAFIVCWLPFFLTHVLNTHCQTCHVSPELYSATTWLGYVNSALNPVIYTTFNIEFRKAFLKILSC

**Q.** With `CCCCCCCCCCCC(=O)OC[C@@H](COP(=O)(O)OCCNC(=O)c1ccc(Cn2c(=O)[nH]c3c(N)nc(OCCOC)nc32)cc1)OC(=O)CCCCCCCCCCC` [TMX-202] as the molecule, how does the “Percent inhibition of specific radioligand binding” value (Purinergic P2x) read?
**A.** 9%

**Q.** And the “Percent inhibition of specific radioligand binding” value (Adenosine A3)?
**A.** 6%

**Q.** And the “Percent inhibition of specific radioligand binding” value (Imidazoline I2, Central)?
**A.** −3%

**Q.** What about the “Percent inhibition of specific radioligand binding” value (Prostanoid EP4) of the same molecule?
**A.** 7%

**Q.** What about the “Percent inhibition of enzyme activity” value (CYP450, 2C9) of the same molecule?
**A.** −4%

**Q.** What about the “Percent inhibition of specific radioligand binding” value (Muscarinic M1) of the same molecule?
**A.** 0%

**Q.** And the “Percent inhibition of specific radioligand binding” value (Estrogen ERa)?
**A.** 7%

**Q.** And the “Percent inhibition of enzyme activity” value (CYP450, 2C19)?
**A.** 1%

**Q.** What about the “Percent inhibition of specific radioligand binding” value (Rolipram) of the same molecule?
**A.** 21%

**Q.** What about the “Serum level of the compound one hour after the application” value [1] of the same molecule?
**A.** 2.6 ± 0.6 pg/mL

**Q.** What about the “Percent inhibition of specific radioligand binding” value [2] of the same molecule?
**A.** 1%

**Q.** What about the “Potency of mIL-6 and mIL-1β induction compared with IMQ” value [3] of the same molecule?
**A.** more potent cytokine inducer

**Q.** What about the “Percent inhibition of specific radioligand binding” value (Dopamine D24) of the same molecule?
**A.** 25%

**Q.** And the “Percent inhibition of specific radioligand binding” value (Adenosine A1)?
**A.** 10%

**Q.** And the “Percent inhibition of specific radioligand binding” value (Endothelin ETA)?
**A.** 13%

**Q.** What about the “Percent inhibition of specific radioligand binding” value (Calcium Channel N-Type) of the same molecule?
**A.** −12%

**Q.** What about the “Potency of hIL-12, hIL-6 and hIFN-α induction compared with IMQ” value (human whole blood) of the same molecule?
**A.** higher potency

**Q.** What about the “Percent inhibition of specific radioligand binding” value (Phorbol Ester) of the same molecule?
**A.** −8%

**Q.** What about the “Percent inhibition of specific radioligand binding” value [4] of the same molecule?
**A.** 57%

**Q.** And the “Percent inhibition of specific radioligand binding” value (Endothelin ETB)?
**A.** −7%

**Q.** And the “Percent inhibition of specific radioligand binding” value (Glutamate, NMDA, Agonism)?
**A.** 10%

**Q.** And the “Percent inhibition of specific radioligand binding” value (Cannabinoid CB1)?
**A.** −14%

**Q.** What about the “Percent inhibition of specific radioligand binding” value [5] of the same molecule?
**A.** 18%

**Q.** And the “Percent inhibition of specific radioligand binding” value (GABAA, Muscimol, Central)?
**A.** −3%

**Q.** What about the “Percent inhibition of specific radioligand binding” value (Interleukin IL-1) of the same molecule?
**A.** 5%

**Q.** What about the “Percent inhibition of enzyme activity” value (CYP450, 2D6) of the same molecule?
**A.** 0%

**Q.** And the “IFN-γ secretion compared with vehicle treated controls” value (human PBMC; PBMC from five independent donors (figure 6C))?
**A.** significantly higher than vehicle treated controls

**Q.** And the “Average IFN-γ levels in the TMX-202+CM” value (human PBMC; human PBMC 10^6/mL, 1 μM TMX-202, 24 hrs, three donors)?
**A.** 204 ± 113 pg/mL

**Q.** What about the “Percent inhibition of enzyme activity” value (CYP450, 1A2) of the same molecule?
**A.** −4%

**Q.** What about the “Percent inhibition of specific radioligand binding” value (Dopamine D3) of the same molecule?
**A.** 15%
